Experimental findings from patent US20250223276A1, “Substituted Pyrrolidinyl And Piperidinyl Compounds And Related Methods Of Treatment” (Alkermes, Inc., priority 2022, published 2025) are described below.

SMILES strings stand for the structures.

In the assay the target is T1, human orexin-2 receptor (OX2R) (Homo sapiens, UniProt O43614).
T1 construct: expressed in transfected cells
T1 sequence (O43614 1-444): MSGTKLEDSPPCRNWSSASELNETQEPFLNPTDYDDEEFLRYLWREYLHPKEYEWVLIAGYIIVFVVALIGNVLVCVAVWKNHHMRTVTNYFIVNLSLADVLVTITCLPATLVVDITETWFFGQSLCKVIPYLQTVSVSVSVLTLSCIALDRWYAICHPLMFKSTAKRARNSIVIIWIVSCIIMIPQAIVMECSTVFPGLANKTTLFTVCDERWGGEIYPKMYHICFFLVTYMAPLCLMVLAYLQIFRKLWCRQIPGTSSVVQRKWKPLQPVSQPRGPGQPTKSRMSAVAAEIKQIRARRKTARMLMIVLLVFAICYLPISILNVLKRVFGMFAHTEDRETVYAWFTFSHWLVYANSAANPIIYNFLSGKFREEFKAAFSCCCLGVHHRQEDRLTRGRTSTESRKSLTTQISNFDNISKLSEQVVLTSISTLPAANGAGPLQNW
Description: Human OX2R IP1 assay. To be noted: T-Rex CHO cells stably overexpressing human OX2R; IP1 (inositol monophosphate) accumulation, HTRF; 1 hr at 37 degrees C. Format: cell-based. The procedure: T-Rex CHO cells stably overexpressing the human orexin-2 receptor (OX2R) are induced overnight with 1 μg/mL of doxycycline in a T225 flask. 24 hours post induction, cells are lifted with accutase and plated into a 384-well proxy plate at 30,000 cells/well. Cells are then treated with different test compounds in 1× stimulation buffer containing 10 mM Hepes, 1 mM CaCl2), 0.5 mM MgCl2, 4.2 mM KCl, 146 mM NaCl, 5.5 mM glucose, and 50 mM LiCl, pH 7.4, for 1 hr at 37 degrees C. Following incubation, the reaction is terminated by the addition of detection mix, which is composed of IP1-d2 and anti-IP1-cryptate diluted in lysis buffer as well as 1× stimulation buffer. The plates are allowed to incubate for 1 hour at room temperature and are then read in the En Vision® multimode plate reader, measuring inositol phosphate levels.
Cisbio IP1 is a cell-based functional assay quantifying the accumulation of inositol monophosphate (IP), a metabolite released as a result of orexin 2 receptor activation through the phospholipase C-Gq signaling pathway. This is a competitive immunoassay in which the IP1 produced by the cells upon receptor activation competes with the IP1 analog coupled to the d2 fluorophore (acceptor) for binding to an anti-IP1 monoclonal antibody labeled with Eu cryptate (donor). The measured HTRF-FRET based signal is inversely proportional to the IP1 concentration produced.
The EC50 values reported in Table 2 were obtained according to the human OX2R IP1 assay described above. Data are the mean EC50 values±S.E.M.
(Time-resolved FRET reads energy transfer from a long-lived donor to a nearby acceptor.)

Take `CN(C)S(=O)(=O)N[C@H]1CCN(c2cccnn2)C[C@H]1CO[C@H]1CC[C@@H](c2cccc(F)c2)CC1` [Compound 2]: the EC50 (usually the concentration that produces a half-maximal response) was under 100 nM.
Take `CNS(=O)(=O)N[C@H]1CCN(c2cccnn2)C[C@H]1CO[C@H]1CC[C@@H](c2cccc(F)c2)CC1` [Compound 3]: the EC50 was under 100 nM.
As for `CN(C)S(=O)(=O)N[C@H]1CCN(C(=O)C2(F)CCC2)C[C@H]1CO[C@H]1CC[C@@H](c2cccc(F)c2)CC1` [Compound 4], the figure is under 100 nM.
In the case of `CN(C)S(=O)(=O)N[C@H]1CCN(C(=O)[C@@H]2CCOC2)C[C@H]1CO[C@H]1CC[C@@H](c2cccc(F)c2)CC1` [Compound 5] it was under 100 nM; in that of `CS(=O)(=O)N[C@H]1CCN(C(=O)C2(F)CCC2)C[C@H]1CO[C@H]1CC[C@@H](c2cccc(F)c2)CC1` [Compound 6], under 100 nM; in that of `CS(=O)(=O)N[C@H]1CCN(C(=O)[C@H]2CCOC2)C[C@H]1CO[C@H]1CC[C@@H](c2cccc(F)c2)CC1` [Compound 7], under 100 nM.
In turn, `O=S(=O)(N[C@H]1CCN(c2cccnn2)C[C@H]1CO[C@H]1CC[C@@H](c2cccc(F)c2)CC1)N1CCC1` [Compound 8] displayed an EC50 of 100 to 1000 nM.
As for `CN(C1CC1)S(=O)(=O)N[C@H]1CCN(c2cccnn2)C[C@H]1CO[C@H]1CC[C@@H](c2cccc(F)c2)CC1` [Compound 9], the figure is 100 to 1000 nM.
As for `O=S(=O)(N[C@H]1CCN(c2cccnn2)C[C@H]1CO[C@H]1CC[C@@H](c2cccc(F)c2)CC1)C1CC1` [Compound 10], the figure is under 100 nM; as for `O=S(=O)(N[C@H]1CCN(c2cccnn2)C[C@H]1CO[C@H]1CC[C@@H](c2cccc(F)c2)CC1)C(F)F` [Compound 11], under 100 nM.
In the case of `CN(C)S(=O)(=O)N[C@H]1CCN(C(=O)C2CCC(F)(F)C2)C[C@H]1CO[C@H]1CC[C@@H](c2cccc(F)c2)CC1` (some centres unmarked) [Compound 13] it was over 1000 nM; in that of `CCN(CC)S(=O)(=O)N[C@H]1CCN(c2cccnn2)C[C@H]1CO[C@H]1CC[C@@H](c2cccc(F)c2)CC1` [Compound 14], over 1000 nM.
On to `O=S(=O)(N[C@H]1CCN(c2cccnn2)C[C@H]1CO[C@H]1CC[C@@H](c2cccc(F)c2)CC1)N1CCOCC1` [Compound 15], for which the EC50 is over 1000 nM.
In the case of `COC(=O)N1CC[C@H](NS(=O)(=O)N(C)C)[C@H](CO[C@H]2CC[C@@H](c3cccc(F)c3)CC2)C1` [Compound 16] it was over 1000 nM.
For the molecule `O=S(=O)(NC1CC1)N[C@H]1CCN(c2cccnn2)C[C@H]1CO[C@H]1CC[C@@H](c2cccc(F)c2)CC1` [Compound 17], the concentration for a half-maximal effect (EC50) fell in the range of 100 to 1000 nM.
As for `O=S(=O)(N[C@H]1CCN(c2cccnn2)C[C@H]1CO[C@H]1CC[C@@H](c2cccc(F)c2)CC1)N1CC(F)C1` [Compound 18], the figure is 100 to 1000 nM.
Consider `CCS(=O)(=O)N[C@H]1CCN(c2cccnn2)C[C@H]1CO[C@H]1CC[C@@H](c2cccc(F)c2)CC1` [Compound 19], for which the EC50 is under 100 nM.
Turning to `O=S(=O)(N[C@H]1CCN(c2cccnn2)C[C@H]1CO[C@H]1CC[C@@H](c2cccc(F)c2)CC1)C1CCC1` [Compound 20], the EC50 was over 1000 nM.
As for `CC(C)S(=O)(=O)N[C@H]1CCN(c2cccnn2)C[C@H]1CO[C@H]1CC[C@@H](c2cccc(F)c2)CC1` [Compound 21], the figure is under 100 nM; as for `O=S(=O)(N[C@H]1CCN(c2cccnn2)C[C@H]1CO[C@H]1CC[C@@H](c2cccc(F)c2)CC1)N1CC(C(F)(F)F)C1` [Compound 22], over 1000 nM.
As for `CC1CN(S(=O)(=O)N[C@H]2CCN(c3cccnn3)C[C@H]2CO[C@H]2CC[C@@H](c3cccc(F)c3)CC2)C1` [Compound 23], the figure is over 1000 nM.
In the case of `CN1CCN(S(=O)(=O)N[C@H]2CCN(c3cccnn3)C[C@H]2CO[C@H]2CC[C@@H](c3cccc(F)c3)CC2)CC1` [Compound 24] it was over 1000 nM; in that of `O=S(=O)(N[C@H]1CCN(c2cccnn2)C[C@H]1CO[C@H]1CC[C@@H](c2cccc(F)c2)CC1)N1CC(C(F)F)C1` [Compound 25], over 1000 nM.
